Measured values as given in BigSolDB 2.1.

Oc1ccc(C2(c3ccc(O)cc3)CCCCC2)cc1
solubility (mole fraction)
Details | in 1,4-dioxane | in THF | in acetone | in ethanol | in ethyl acetate | in isopropanol | in methanol | in n-butanol | in n-propanol
288.15 K | 0.0609 | 0.182 | 0.0602 | 0.0073 | 0.0571 | 0.0053 | 0.012 | 0.012 | 0.032
293.15 K | 0.0621 | 0.192 | 0.0652 | 0.0084 | 0.0681 | 0.0061 | 0.0129 | 0.0127 | 0.0355
298.15 K | 0.0676 | 0.206 | 0.0756 | 0.0096 | 0.0769 | 0.0066 | 0.0162 | 0.0133 | 0.0437
303.15 K | 0.0731 | 0.221 | 0.0931 | 0.0117 | 0.0951 | 0.0076 | 0.0208 | 0.0157 | 0.0563
308.15 K | 0.0866 | 0.236 | 0.109 | 0.013 | 0.113 | 0.0089 | 0.0253 | 0.0184 | 0.0654
313.15 K | 0.103 | 0.251 | 0.127 | 0.0152 | 0.136 | 0.0134 | 0.0342 | 0.0236 | 0.0789
318.15 K | 0.116 | 0.268 | 0.152 | 0.017 | 0.15 | 0.0192 | 0.0428 | 0.028 | 0.0896
323.15 K | 0.127 | 0.283 | 0.182 | 0.0186 | 0.176 | 0.0243 | 0.0547 | 0.0348 | 0.103
328.15 K | 0.144 | 0.308 | 0.219 | 0.0202 | 0.199 | 0.0294 | 0.0685 | 0.0431 | 0.121
